In paper PMC9445589, “Apolipoprotein E mimetic peptide COG1410 combats pandrug-resistant Acinetobacter baumannii” (Frontiers in Microbiology, 2022):
Converted amounts (≈) assume the structure as drawn. Non-standard residues stand in square brackets, D forms with d. Residues, ends and D or L forms follow the SMILES beside them. Aib = CC(C)(N)C(=O)O

Key:
[1] = test system: MDR Pseudomonas aeruginosa 14–61; details: microdilution method in the corresponding broth
[2] = test system: Staphylococcus aureus ATCC29213; assay: MIC, microdilution method; format: cell-based; details: microdilution method in the corresponding broth
Method: (§1) Strain stocks were maintained at −80°C in 10% glycerol. Bacteria were streaked on fresh plates before each experiment. Most of them were cultured in LB broth containing 10 g/L NaCl at 37°C, except for Mycobacteria in 7H9 broth and Enterococcus in BHI broth. Porphyromonas gingivalis was cultured in BHI broth supplemented with 1 μg/ml vitamin k1, 5 μg/ml hemin, and 5 mg/ml L-cysteine hydrochloride at 37°C in the anaerobic chamber. The minimal inhibitory concentrations (MICs) of antimicrobials were determined using the microdilution method in the corresponding broth.

[3] = test system: Pseudomonas aeruginosa PAO1; assay: MIC, microdilution method; format: cell-based; details: microdilution method in the corresponding broth
Method: as §1

[4] = test system: MDR Mycobacterium tuberculosis 6–45; details: microdilution method, 7H9 broth
[5] = test system: PDR Acinetobacter baumannii YQ4; assay: microbe, parasite or virus in culture; format: cell-based
Method: as §1
The pandrug-resistant A. baumannii YQ4 was collected from the clinical laboratory of the second hospital in Nanjing. The complete genome was sequenced by Nanopore, and the data were deposited in the GenBank with accession number CP053033.

A. baumannii YQ4 biofilm = assay: static biofilm inhibition, crystal violet; format: cell-based, Acinetobacter baumannii; details: 48 h
Method: Static biofilm inhibition was performed as described previously (Gaddy and Actis, [2009]). Briefly, the log-phase culture of A. baumannii YQ4 was prepared as described above. About 200 μl of culture was seeded in each cell of the 96-well PVC plate with OD600 of 0.01 (ca. 1 × 10^6 CFU/ml), which was exposed to different COG1410 solutions with the final concentrations ranging from 0.5 to 128 μg/ml. Each concentration was determined in eight wells. After incubation at 37°C for 48 h, the planktonic bacteria were removed by washing three times with sterilized water, followed by fixing in methanol for 15 min and staining with 0.1% crystal violet (CV) for 15 min. Excess CV was washed off, and the bound CV was eluted from the biofilm into 150 μl of 95% ethanol and quantitated spectrophotometrically at 600 nm using a Biotek Synergy H1 plate reader. The experiments were performed in triplicate.

A. baumannii YQ4 [6] = assay: Live/Dead BacLight SYTO-9/PI staining, confocal microscopy; format: cell-based, Acinetobacter baumannii; details: 1× MIC COG1410 (16 μg/ml) or 5× MIC polymyxin B (80 μg/ml), 37°C, 30 min
Method: The damage to the cytoplasmic membrane was determined as described previously (Farkas et al., [2017]), with the Live/Dead BacLight bacterial viability kit (Invitrogen L7012). The log-phase culture of A. baumannii YQ4 was washed two times and suspended in PBS with the final OD600 of 0.1. […] Then, the cells were stained with 7.5 μM SYTO-9 and 30 μM propidium iodide (PI) in dark for 15 min. In total, 5 μl of culture was spotted on a clean slide coated with a thin layer of 1% agarose. The fluorescence was observed by Olympus FV3000 confocal laser scanning microscope. For SYTO-9, the excitation and emission were 483 and 503 nm, respectively. For PI, the excitation and emission were 493 and 636 nm, respectively.

[7] = test system: MDR Citrobacter freundii 7–83; details: microdilution method in the corresponding broth
[8] = test system: vancomycin-resistant Enterococcus faecium 11–47; details: vancomycin-resistant 11–47
[9] = test system: EBSL-producing Proteusbacillus vulgaris YQ19; details: microdilution method in the corresponding broth
MDR Serratia mucosa YQ15 = details: microdilution method in the corresponding broth
A. baumannii YQ4 [10] = assay: transmission electron microscopy (TEM) of treated cells; details: 1× MIC (16 μg/ml), PBS, 37°C, 30 min
[11] = test system: clinically collected A. baumannii strains
Method: as §1
TAble S2. Determination of bactericidal effect of COG1410 against clinically collected A. baumannii strains. MIC was measured in LB broth by microdilution method.

A. baumanii YQ4 = assay: induction of resistance through serial passage; details: sub-MIC exposure, 55 passages
[12] = test system: Mycobacterium smegmatis MC^2155; details: Mycobacterium MC^2155
[13] = test system: pandrug-resistant (PDR) Acinetobacter baumannii YQ4
A. baumannii = details: 1× MIC, PBS, 2 h
plasmid pUC18 = assay: DNA-binding assay, gel retardation
Method: Gel retardation experiments were conducted as previously described (Yan et al., [2013]). Briefly, 300 ng of the plasmid pUC18 was mixed with different concentrations of COG1410 in 30 μl of buffer (10 mM Tris-HCl and 1 mM EDTA buffer, pH 8.0) and incubated at room temperature for 30 min. The reaction mixtures were mixed with 1 × native loading buffer and subjected to 1.5% agarose gel electrophoresis. The migration of DNA was detected by the fluorescence of GelRed dye.

[14] = test system: Escherichia coli ATCC25922

CC(=O)N[C@@H](C)C(=O)N[C@@H](CO)C(=O)NC(C)(C)C(=O)N[C@@H](CC(C)C)C(=O)N[C@@H](CCCNC(=N)N)C(=O)N[C@@H](CCCCN)C(=O)N[C@@H](CC(C)C)C(=O)NC(C)(C)C(=O)N[C@@H](CCCCN)C(=O)N[C@@H](CCCNC(=N)N)C(=O)N[C@@H](CC(C)C)C(=O)N[C@@H](CC(C)C)C(N)=O [COG1410, acetyl-AS-Aib-LRKL-Aib-KRLL-amide] (Ac-AS[Aib]LRKL[Aib]KRLL-NH2)
MIC [1]: >256 µg/mL
MIC [2]: >256 µg/mL
MIC [3]: >256 µg/mL
MIC [4]: 16 µg/mL (≈ 11.4 µM)
MIC ([5]; PDR YQ4): 11.3 µM
MIC ([5]; microdilution method, LB broth): 16 µg/mL
biofilm formation, in words (A. baumannii YQ4 biofilm; 1/2 MIC, crystal violet): significantly reduced biofilm formation
reduction of biofilm mass (A. baumannii YQ4 biofilm; 1× MIC, 37°C, crystal violet OD600, versus untreated control): 55%
SYTO-9/PI staining of treated cells (A. baumannii YQ4 [6]): red fluorescence
MIC [7]: 16 µg/mL (≈ 11.4 µM)
MIC [8]: 16 µg/mL (≈ 11.4 µM)
MIC [9]: >256 µg/mL
MIC (MDR Serratia mucosa YQ15): >256 µg/mL
cell membrane integrity by TEM (A. baumannii YQ4 [10]): wrinkled and smaller compared with untreated cells
MICs over 107 clinically collected A. baumannii strains ([11]; clinically collected strains): 16 to 32 µg/mL
MIC ([11]; strain Ab3-1 (MDR-Ab, hydrothorax and ascite), LB broth): 32 µg/mL (≈ 22.7 µM)
increase of MIC after serial passage (A. baumanii YQ4): 4 fold
MIC [12]: 16 µg/mL (≈ 11.4 µM)
minimal bactericidal concentration (MBC) [13]: 16 µg/mL (≈ 11.4 µM)
A. baumannii population killed, in words (A. baumannii): almost complete elimination
electrophoretic mobility of pUC18 (plasmid pUC18; 1× MIC, 300 ng plasmid, 30 min room temperature, 1.5% agarose): only part of them migrated
electrophoretic mobility of pUC18 (plasmid pUC18; higher concentrations than 1× MIC): completely retarded
MIC [14]: 64 µg/mL (≈ 45.4 µM)
